Two compounds from patent EP2627439B1, “METHOD FOR SOLUBILIZING CARBOXYLIC ACID-CONTAINING COMPOUND IN HYDROCARBON SOLVENT” (Dow Global Technologies LLC, priority 2011, dated 2013) can be followed below.

Bounds are passed on as bounds.

The data set in a line: Solubility measurement of acid chlorides containing one carboxylic acid moiety in hydrocarbon solvents (saturated solutions, proton NMR). The format is physicochemical. Conditions: saturated solution, 20°C and 101 kPa. The protocol:
Solubility measurement of acid chlorides containing one carboxylic acid moiety in hydrocarbon solvents with and without solubility enhancing additives: • Saturated solutions of sample acid chlorides containing carboxylic acid moieties were prepared in hydrocarbon solvents with and without the presence of trialkylphosphate additives by adding more sample than will dissolve in the solvent and decanting the saturated solvent from the undissolved precipitate. The saturated solutions were evaluated by proton NMR. Deuterated Isopar L is not commercially available, thus all spectra were acquired in the unlocked condition using regular Isopar L. Because of the very high proton concentration in running a non-deuterated solvent, 60° pulse and minimum receiver gain were used to avoid receiver overflow. A relaxation delay of 8 seconds was used for complete signal recovery between scans. The spectral width was set to 20 ppm and the center of the spectrum was set to 5 ppm. Depending on the concentrations of the species of interest, 64-256 scans were used for signal averaging.
The area of the Isopar L peaks between 0.75 and 2.0 ppm were measure and divided by 26 (which represents the average H's present in Isopar L, assuming a molecular formula of C12H26) and multiplied by 170.33, the formula weight of C12H26. The peak area of the aromatic acid chlorides containing carboxylates are between 8.9 - 9.2 ppm and are well resolved from the Isopar solvent. The integration of one of the assigned peaks (for example, the triplet of mono-hydrolyzed TMC at 9.0 ppm represents a single proton) was used to determine the relative weight of the sample in the Isopar L solvent. The integration is divided by the number of protons it represents and multiplied by the formula weight of the compound it represents (for example, the triplet of mono-hydrolyzed TMC at 9.0 ppm would be divided by 1 and multiplied by 247.03 g/mol). The wt% of mono-hydrolyzed TMC in the saturated solution is determined by dividing the value obtained for mono-hydrolyzed TMC by the value obtained for Isopar L.
In the presence of tributylphosphate (TBP), the Isopar L value must be corrected since a few protons of TBP cannot be resolved from the Isopar L peaks. This is done by integrating the -OCH2-protons of TBP which are well resolved at ∼4.05 ppm, dividing this value by 6 (for 6 protons). This area value is then multiplied by 21 (represents the three -CH2CH2CH3 that are unresolved from the Isopar L peak) and subtracted from the peak area of Isopar L. Table 2: […]

Regarding `O=C(O)c1cccc(C(=O)Cl)c1` [mhIPC], the “Solubility (wt%)” value reads like this: (Solvent: Isopar L + 0.47 wt% TBP) 0.29 wt%; (Solvent: Isopar L, no additive) less than 0.02 wt%.

As to `O=C(O)c1cc(C(=O)Cl)cc(C(=O)Cl)c1` [mhTMC, mono-hydrolyzed trimesoyl chloride], the “Solubility (wt%)” value was 0.05 wt% (Solvent: 80/20 Isopar L / Toluene, no additive); 0.29 wt% (Solvent: 80/20 Isopar L/Toluene + 0.25 wt% TBP); 0.11 wt% (Solvent: Isopar L + 1 wt% TEHP); 0.2 wt% (Solvent: Isopar L + 1 wt% TEP); 0.02 wt% (Solvent: Isopar L, no additive).
